For assay [1], the system named is senescent myoblasts (11 cell passages). Description: lipofuscin autofluorescence by flow cytometry. The class given is cell-based, Human. The following applies: 4 weeks, vs control, p<0.05, FIG. 14. As to the method:
Myoblast cell lines (Human Skeletal Muscle Myoblasts, Lonza CC-2580 LOT:0000387550) were cultured in SkBM™-2 Basal Media (Lonza CC-3246) including an SkGM™-2 SingleQuots™ Kit (Lonza CC-3244) on plates coated with Collagen Type I (Greiner Bio One, 658950) in a 5% CO2 incubator at 37° C. Subculture was initiated when the cells were approximately 85% confluent in plates. Early subcultures were performed at a split ratio of 1:4, and later subcultures were performed at a split ratio of 1:2. When cell doubling time was 14 days, the cells were regarded as senescent myoblasts (cell passages 10 to 12).
In addition, amounts of lipofuscin accumulated in the cultured cells were measured. Senescent myoblasts (11 cell passages) were cultured in the presence of 5 μM of Y-27632, 5 μM of FASUDIL, and 0.5 μM of SR3677 for 4 weeks in a 5% CO2 incubator at 37° C. The culture media were changed at every 4 days with new culture media supplemented with 5 μM of Y-27632, 5 μM of FASUDIL, and 0.5 μM of SR3677. Since lipofuscin has autofluorescence characteristics, light having a wavelength of 488 nm was irradiated to the cells by using a FACSCaliber (Beckton Dickinson) and light emission at 520 nm was measured. The results were analyzed using Cell Quest 3.2 software (Beckton Dickinson). FIG. 14 is a graph displaying amounts of lipofuscin in myoblasts (11 cell passages) cultured in the presence of Rho-kinase inhibitors Y-27632 (5 μM), Fasudil (5 μM), and SR3677 (0.5 μM). […] In FIG. 14, * indicates statistically significant (p<0.05).
A general note: Flow cytometry measures light scatter and fluorescence of single cells or particles in a stream.

The subject of assay [2] is senescent fibroblasts (after 37 cell passages). Put plainly: microscopic observation of cell number and shape. Format: cell-based, human. As to conditions: 5 μM, 4 weeks, FIG. 3. As to the method: In addition, after senescent fibroblasts (after 37 cell passages) were cultured in the same culture media and same conditions as described above in the presence of 0.05 (v/v) % of DMSO and Y-27632 (5 μM), shapes of the cells were observed using a microscope. FIG. 3 is a microscopic image illustrating cell shapes of senescent fibroblasts (after 37 cell passages) cultured in the presence of Y-27632 for 4 weeks.

The test system of assay [3] is wound tissue of old (19 months old) male C57BL/6J mice. Put plainly: immunohistochemistry and Masson's trichrome staining of wound tissue sections. The class given is in vivo, mouse. The following applies: 10 μM in 30% Pluronic gel topical daily. The method, then: To further test whether ROCK inhibitor can promote cutaneous wound healing in old (19 months old) male mice (C57BL/6J mice), four full-thickness punch-biopsy wounds (8 mm in diameter)(four wound sites/mouse, five mice/group) were created on the dorsal skin of mouse, 0.5 mL 10 μM Y-27632 in 30% Pluronic gel (Pluronic F-127 Sigma, P2443-1KG) was applied to wounds every day, and then covered the wounds with Telfa sponges (Kendall Health Care, Mansfield, Mass., USA). DMSO was used as a control. All animal studies were reviewed and approved by the […] Animal Care and Use Committee of SKKU School of Medicine (SUSM). SUSM is an Association for Assessment and Accreditation of Laboratory Animal Care international accredited facility and abides by the Institute for Laboratory Animal Research guide. Wounds were photographed for 10 days. Immunohistochemistry analyses were performed on 5 μm paraffin embedded sections as described previously (Lin et. al., 2004. Developmental Biology 270, 474-486). Primary antibodies used for immunohistochemistry were mouse anti-α-smooth muscle actin (Sigma, F3777-2ML, 1:500), and mouse anti-PCNA (Santa Cruz Biotechnology, SC-56, 1:500). Secondary antibodies used for immunohistochemistry were EnVisionTM Detection System (DAKO, […]). Masson's trichrome staining was performed according to the manufacturer's instructions (Polysciences Inc., Warrington Pa., USA). An immunohistochemical analysis was carried out to investigate the mechanism underlying the wound-healing process. […] FIG. 24 represents an immunohistochemical experimental result showing that Y-27632 treatment plays an important role in wound healing in old mouse (19 months old). Wound tissue sections were also subjected to Masson's trichrome staining to assess collagen deposition in the cross-sectional area of remodeled tissue.

The test system of assay [4] is senescent fibroblasts (after 37 cell passages). Description: cell cycle analysis (Muse Cell Cycle Kit). As to conditions: 5 μM; 4 weeks; vs DMSO control; FIG. 4. Format: cell-based, human. The method, then: The senescent fibroblasts (after 37 cell passages) were cultured in culture media respectively supplemented with 5 μM of Y-27632 (A), 5 μM of FASUDIL (B), and 0.5 μM of SR3677 (C) for 4 weeks in a 5% CO2 incubator at 37° C. The culture media were changed with new culture media respectively supplemented with 5 μM of Y-27632, 5 μM of FASUDIL, and 0.5 μM of SR3677 at every 4 days. Cell cycles were measured using a Muse™ Cell Cycle Kit (MERCK Millipore, MCH100106) in accordance with manufacturer's manuals. Light having a wavelength of 488 nm was irradiated to the cells using a Muse™ Cell Analyzer (MERCK Millipore) and light emission at 520 nm was measured. The results were analyzed using Cell Quest 3.2 software (Beckton Dickinson). The control group was prepared in the same manner, except that 0.05 (v/v) % of DMSO was added thereto.

“Also recorded” adds a separate entry of the source.

As for `CN(C)CCOc1cc(-c2cn[nH]c2)ccc1NC(=O)C1COc2ccccc2O1` (stereo not drawn) [SR3677], the amounts of lipofuscin entry in assay [1] (0.5 μM) was “significantly reduced”.

In the case of `C[C@@H](N)[C@H]1CC[C@H](C(=O)Nc2ccncc2)CC1` [Y-27632, (1R,4R)-4-((R)-1-aminoethyl)-N-(pyridin-4-yl)cyclohexanecarboxamide], the cell shape entry in assay [2] was “spindle shape generally found in young cells”. Besides, the numbers of cells result in assay [2] (vs DMSO) is recorded as “greater than that of the control group”. Also, the “Masson's trichrome staining (collagen deposition)” value in assay [3] (DMSO: diffuse in granulation tissue, FIG. 24) was “strong in the dermis area”. Besides, the “site of proliferation by PCNA immunolabeling” value in assay [3] (DMSO: selective proliferation in granulation tissue, FIG. 24) was “proliferation was observed in the supra basal area of epidermis”. Besides, the “α-SMA immunoreactivity in wound area” value in assay [3] (control: high in granulation tissue, FIG. 24) is “diffuse in the dermis and was correlated with the appearance of collagen fibers”. The collagen thickness entry in assay [3] (relative to DMSO, P<0.01, FIG. 25) is “increased; also recorded: more dense and thicker collagen”. The “number of PCNA-positive cells in the epidermis” value in assay [3] (vs control group, P<0.01, FIG. 26) is listed as “higher”. For the same molecule, in assay [1] (5 μM), the amounts of lipofuscin result was “significantly reduced”. Besides, the “number of cells in G0/G1 phases” value in assay [4] is “less than that of cells in S and G2/M phases”.

For the molecule `O=S(=O)(c1cccc2cnccc12)N1CCCNCC1` [FASUDIL, 5-(1,4-diazepane-1-sulfonyl)isoquinoline], the amounts of lipofuscin entry in assay [1] (5 μM) is recorded as “significantly reduced”. In addition, the “number of cells in G0/G1 phases” value in assay [4] was “less than that of cells in S and G2/M phases”.

These data come from patent publication US9943525B2, “Composition for reducing cell senescence comprising Rho-kinase inhibitor and use thereof” (Samsung Electronics Co., Ltd., priority 2014, dated 2018).
